Source: patent US20230091042A1, “SMARCA2-VHL DEGRADERS” (AMGEN INC., priority 2020, published 2023)

How the values were obtained:
SMARCA2 = molecular target: T1, SMARCA2 (Homo sapiens, UniProt P51531); assay: SMARCA2 MSD assay in A375 cells (SMARCA2 degradation, 2 h); assay type: cell-based; conditions: 2 h compound treatment, N/C = no curve; for DC50: read-out: A375 SMARCA2 MSD IC50 IP
T1 construct: endogenous in cells; host or cells: A375 cells (ATCC CRL-1619)
Method: (§1) SMARCA2 and SMARCA4 MSD Assays in A375 Cells:
A375 cells (ATCC® CRL-1619™) were cultured in RPMI 1640 Medium (ThermoFisher Scientific 11875093) containing 10% fetal bovine serum (ThermoFisher Scientific 16000044) and 1× penicillin-streptomycin-glutamine (ThermoFisher Scientific 10378016). Sixteen hours prior to compound treatment, cells were seeded in 96-well cell culture plates (Corning 3904) at a density of 2.5×10^5 cells/well (90 uL/well) and incubated at 37° C., 5% CO2. A 1:3 compound dose-response titration was diluted in growth media (1:20), added to appropriate wells of a cell culture plate (1:10) and then assay plates were incubated at 37° C., 5% CO2. After 2 h of compound treatment, cells were lysed in MSD lysis buffer (MSD R60TX-2) containing protease (Roche 04693116001) and phosphatase (Roche 04906837001) inhibitors.
. Plates were washed with 300 μL per well MSD wash buffer (MSD R61TX-1) between each step. Following the last incubation, plates were washed with MSD wash buffer then 150 uL of MSD read buffer (MSD R92TC-2) was added to each well. Plates were immediately read on a MSD plate reader (MSD Sector Imager 6000) and data was analyzed using a 4-parameter logistic model to calculate IC50 values.

SMARCA4 = molecular target: T2, SMARCA4 (Homo sapiens, UniProt P51532); assay: SMARCA4 MSD assay in A375 cells (SMARCA4 degradation, 2 h); assay type: cell-based; conditions: 2 h compound treatment, N/C = no curve
T2 construct: After 2 h of compound treatment, cells were lysed in MSD lysis buffer; endogenous in cells; host or cells: A375 cells (ATCC CRL-1619)
T2 sequence (P51532 whole entry): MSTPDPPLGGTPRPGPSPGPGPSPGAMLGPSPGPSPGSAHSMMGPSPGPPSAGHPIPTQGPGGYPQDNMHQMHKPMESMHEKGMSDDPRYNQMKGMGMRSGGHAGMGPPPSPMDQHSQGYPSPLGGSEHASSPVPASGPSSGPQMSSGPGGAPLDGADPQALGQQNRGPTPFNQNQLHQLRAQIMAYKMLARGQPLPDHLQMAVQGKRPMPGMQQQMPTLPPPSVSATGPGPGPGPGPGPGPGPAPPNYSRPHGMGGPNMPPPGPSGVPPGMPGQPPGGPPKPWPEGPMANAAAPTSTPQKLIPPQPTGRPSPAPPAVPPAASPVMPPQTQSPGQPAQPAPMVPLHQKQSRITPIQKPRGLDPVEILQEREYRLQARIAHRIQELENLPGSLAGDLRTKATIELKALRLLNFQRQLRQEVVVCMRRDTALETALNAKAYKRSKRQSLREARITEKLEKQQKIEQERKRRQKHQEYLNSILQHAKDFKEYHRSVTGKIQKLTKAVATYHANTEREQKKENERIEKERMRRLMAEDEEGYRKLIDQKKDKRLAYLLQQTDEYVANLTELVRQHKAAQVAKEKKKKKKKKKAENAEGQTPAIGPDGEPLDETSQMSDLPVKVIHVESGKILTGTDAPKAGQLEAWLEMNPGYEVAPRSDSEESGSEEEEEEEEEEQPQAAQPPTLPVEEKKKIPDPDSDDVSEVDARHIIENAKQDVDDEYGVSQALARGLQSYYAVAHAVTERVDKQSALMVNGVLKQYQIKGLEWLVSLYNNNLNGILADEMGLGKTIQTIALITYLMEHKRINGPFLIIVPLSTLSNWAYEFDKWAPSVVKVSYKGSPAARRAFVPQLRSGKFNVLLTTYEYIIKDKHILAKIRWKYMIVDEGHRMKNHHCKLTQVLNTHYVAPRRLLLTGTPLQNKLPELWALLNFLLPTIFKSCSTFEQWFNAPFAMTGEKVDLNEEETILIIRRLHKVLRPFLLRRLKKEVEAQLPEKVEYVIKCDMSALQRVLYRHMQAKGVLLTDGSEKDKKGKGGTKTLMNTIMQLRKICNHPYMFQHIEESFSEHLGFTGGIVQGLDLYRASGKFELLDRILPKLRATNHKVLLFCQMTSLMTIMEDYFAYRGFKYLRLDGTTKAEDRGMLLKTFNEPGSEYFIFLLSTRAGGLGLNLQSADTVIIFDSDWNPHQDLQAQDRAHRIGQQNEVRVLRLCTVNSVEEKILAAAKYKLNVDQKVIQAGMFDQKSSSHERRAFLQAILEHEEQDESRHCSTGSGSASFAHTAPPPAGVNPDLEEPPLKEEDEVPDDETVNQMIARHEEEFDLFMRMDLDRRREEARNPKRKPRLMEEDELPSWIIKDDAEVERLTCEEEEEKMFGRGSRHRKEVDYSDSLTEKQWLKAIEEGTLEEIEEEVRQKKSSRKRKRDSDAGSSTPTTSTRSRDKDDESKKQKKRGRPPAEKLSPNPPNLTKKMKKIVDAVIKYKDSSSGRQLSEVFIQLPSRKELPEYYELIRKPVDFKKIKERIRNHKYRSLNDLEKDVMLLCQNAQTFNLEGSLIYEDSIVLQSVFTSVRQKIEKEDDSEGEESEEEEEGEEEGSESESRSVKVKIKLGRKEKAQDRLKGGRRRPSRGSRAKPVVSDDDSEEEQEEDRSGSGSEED
Method: as §1
A 1:3 compound dose-response titration was diluted in growth media (1:20), added to appropriate wells of a cell culture plate (1:10) and then assay plates were incubated at 37° C., 5% CO2.
Plates were washed with 300 μL per well MSD wash buffer (MSD R61TX-1) between each step. Following the last incubation, plates were washed with MSD wash buffer then 150 uL of MSD read buffer (MSD R92TC-2) was added to each well. Plates were immediately read on a MSD plate reader (MSD Sector Imager 6000) and data was analyzed using a 4-parameter logistic model to calculate IC50 values.

T1 sequence (P51531 whole entry): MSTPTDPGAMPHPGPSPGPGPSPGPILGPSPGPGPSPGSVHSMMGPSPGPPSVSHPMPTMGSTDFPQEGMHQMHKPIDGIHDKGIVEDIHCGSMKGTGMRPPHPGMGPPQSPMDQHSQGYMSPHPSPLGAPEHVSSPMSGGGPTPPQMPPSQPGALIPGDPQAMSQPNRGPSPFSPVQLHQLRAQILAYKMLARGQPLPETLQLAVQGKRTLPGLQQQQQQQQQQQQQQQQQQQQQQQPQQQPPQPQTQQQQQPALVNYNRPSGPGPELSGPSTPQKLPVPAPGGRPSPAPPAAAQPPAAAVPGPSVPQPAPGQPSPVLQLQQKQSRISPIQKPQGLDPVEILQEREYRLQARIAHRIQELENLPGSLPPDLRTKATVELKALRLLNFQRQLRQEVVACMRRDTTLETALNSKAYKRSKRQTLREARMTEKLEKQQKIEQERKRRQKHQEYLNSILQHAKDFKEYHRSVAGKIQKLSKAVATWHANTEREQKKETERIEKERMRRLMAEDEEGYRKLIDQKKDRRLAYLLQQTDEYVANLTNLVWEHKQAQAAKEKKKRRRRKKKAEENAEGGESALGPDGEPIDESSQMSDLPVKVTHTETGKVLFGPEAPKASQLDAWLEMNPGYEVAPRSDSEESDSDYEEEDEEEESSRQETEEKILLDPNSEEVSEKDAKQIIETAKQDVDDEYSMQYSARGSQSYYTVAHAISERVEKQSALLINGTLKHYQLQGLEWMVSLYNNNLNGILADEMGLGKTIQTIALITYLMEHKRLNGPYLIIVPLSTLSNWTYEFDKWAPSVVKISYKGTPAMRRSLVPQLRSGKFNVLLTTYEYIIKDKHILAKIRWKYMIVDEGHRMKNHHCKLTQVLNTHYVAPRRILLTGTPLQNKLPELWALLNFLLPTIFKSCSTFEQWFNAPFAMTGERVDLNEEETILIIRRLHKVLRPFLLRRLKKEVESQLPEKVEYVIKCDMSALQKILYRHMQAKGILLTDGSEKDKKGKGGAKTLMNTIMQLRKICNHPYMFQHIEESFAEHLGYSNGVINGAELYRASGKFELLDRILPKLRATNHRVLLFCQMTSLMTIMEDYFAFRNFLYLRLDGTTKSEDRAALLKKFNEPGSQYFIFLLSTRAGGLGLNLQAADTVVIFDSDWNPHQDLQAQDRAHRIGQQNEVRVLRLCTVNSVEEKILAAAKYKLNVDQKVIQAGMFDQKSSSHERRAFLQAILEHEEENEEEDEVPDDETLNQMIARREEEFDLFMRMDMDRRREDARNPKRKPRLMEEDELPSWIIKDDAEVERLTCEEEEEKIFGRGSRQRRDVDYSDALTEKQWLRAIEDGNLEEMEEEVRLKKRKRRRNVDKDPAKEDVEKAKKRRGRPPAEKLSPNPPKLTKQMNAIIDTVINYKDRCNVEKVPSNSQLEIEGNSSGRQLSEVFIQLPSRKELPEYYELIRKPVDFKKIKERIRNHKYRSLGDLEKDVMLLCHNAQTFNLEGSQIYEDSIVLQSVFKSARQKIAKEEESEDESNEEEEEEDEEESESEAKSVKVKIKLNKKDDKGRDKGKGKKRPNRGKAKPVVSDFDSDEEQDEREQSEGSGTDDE

SMILES	DC50 (SMARCA2) [nM]	A375 SMARCA4 MSD IC50 IP (SMARCA4)	other results
Cc1ncsc1-c1ccc([C@H](C)NC(=O)[C@@H]2C[C@@H](O)CN2C(=O)[C@@H](NC(=O)c2ccnc(N3CCN(c4cnnc(-c5ccccc5O)c4)CC3)c2)C(C)(C)C)cc1 [Example 11, N—((S)-1-((2S,4R)-4-Hydroxy-2-(((S)-1-(4-(4-methylthiazol-5-yl)phenyl)ethyl)carbamoyl)pyrrolidin-1-yl)-3,3-dimethyl-1-oxobutan-2-yl)-2-(4-(6-(2-hydroxyphenyl)pyridazin-4-yl)piperazin-1-yl)isonicotinamide]	350	N/C	–
Cc1ncsc1-c1ccc([C@H](C)NC(=O)[C@@H]2C[C@@H](O)CN2C(=O)[C@@H](NC(=O)CN2CCN(c3cc(-c4cccc(F)c4O)nnc3N)CC2)C(C)(C)C)cc1 [compound 2, (2S,4R)-1-((S)-2-(2-(4-(3-Amino-6-(3-fluoro-2-hydroxyphenyl)pyridazin-4-yl)piperazin-1-yl)acetamido)-3,3-dimethylbutanoyl)-4-hydroxy-N—((S)-1-(4-(4-methylthiazol-5-yl)phenyl)ethyl)pyrrolidine-2-carboxamide, reference compound]	420	–	–
Cc1ncsc1-c1ccc([C@H](C)NC(=O)[C@@H]2C[C@@H](O)CN2C(=O)[C@@H](NC(=O)c2ccc(N3CCN(c4cc(-c5ccccc5O)nnc4N)CC3)nc2)C(C)(C)C)cc1 [Example 7, 6-(4-(3-Amino-6-(2-hydroxyphenyl)pyridazin-4-yl)piperazin-1-yl)-N—((S)-1-((2S,4R)-4-hydroxy-2-(((S)-1-(4-(4-methylthiazol-5-yl)phenyl)ethyl)carbamoyl)pyrrolidin-1-yl)-3,3-dimethyl-1-oxobutan-2-yl)nicotinamide]	–	N/C	A375 SMARCA2 MSD IC50 IP (SMARCA2): N/C
Cc1ncsc1-c1ccc([C@H](C)NC(=O)[C@@H]2C[C@@H](O)CN2C(=O)[C@@H](NC(=O)CN2CCN(c3cc(-c4ccccc4O)nnc3N)CC2)C(C)(C)C)cc1 [compound 1, (2S,4R)-1-((S)-2-(2-(4-(3-Amino-6-(2-hydroxyphenyl)pyridazin-4-yl)piperazin-1-yl)acetamido)-3,3-dimethylbutanoyl)-4-hydroxy-N—((S)-1-(4-(4-methylthiazol-5-yl)phenyl)ethyl)pyrrolidine-2-carboxamide, reference compound]	250	–	DC50 (SMARCA4; read-out: A375 SMARCA4 MSD IC50 IP): 840 nM
Cc1ncsc1-c1ccc([C@H](C)NC(=O)[C@@H]2C[C@@H](O)CN2C(=O)[C@@H](NC(=O)Cc2ccnc(N3CCN(c4cc(-c5ccccc5O)nnc4N)CC3)c2)C(C)(C)C)cc1 [Example 8, (2S,4R)-1-((S)-2-(2-(2-(4-(3-Amino-6-(2-hydroxyphenyl)pyridazin-4-yl)piperazin-1-yl)pyridin-4-yl)acetamido)-3,3-dimethylbutanoyl)-4-hydroxy-N—((S)-1-(4-(4-methylthiazol-5-yl)phenyl)ethyl)pyrrolidine-2-carboxamide]	–	N/C	A375 SMARCA2 MSD IC50 IP (SMARCA2): N/C
Cc1ncsc1-c1ccc([C@H](C)NC(=O)[C@@H]2C[C@@H](O)CN2C(=O)[C@@H](NC(=O)CCc2ccnc(N3CCN(c4cc(-c5ccccc5O)nnc4N)CC3)c2)C(C)(C)C)cc1 [Example 9, (2S,4R)-1-((S)-2-(3-(2-(4-(3-Amino-6-(2-hydroxyphenyl)pyridazin-4-yl)piperazin-1-yl)pyridin-4-yl)propanamido)-3,3-dimethylbutanoyl)-4-hydroxy-N—((S)-1-(4-(4-methylthiazol-5-yl)phenyl)ethyl)pyrrolidine-2-carboxamide]	–	N/C	A375 SMARCA2 MSD IC50 IP (SMARCA2): N/C

More lines, main results first:

DC50 (SMARCA2) [nM]	A375 SMARCA4 MSD IC50 IP (SMARCA4)	SMILES	other results
250	–	Cc1ncsc1-c1ccc([C@H](C)NC(=O)[C@@H]2C[C@@H](O)CN2C(=O)[C@@H](NC(=O)c2cccc(N3CCN(c4nc(-c5ccccc5O)nnc4N)CC3)n2)C(C)(C)C)cc1 [Example 10, 6-(4-(6-Amino-3-(2-hydroxyphenyl)-1,2,4-triazin-5-yl)piperazin-1-yl)-N—((S)-1-((2S,4R)-4-hydroxy-2-(((S)-1-(4-(4-methylthiazol-5-yl)phenyl)ethyl)carbamoyl)pyrrolidin-1-yl)-3,3-dimethyl-1-oxobutan-2-yl)picolinamide]	–
120	–	Cc1ncsc1-c1ccc([C@H](C)NC(=O)[C@@H]2C[C@@H](O)CN2C(=O)[C@@H](NC(=O)c2cccc(N3CCN(c4cc(-c5ccccc5O)nnc4N)CC3)n2)C(C)(C)C)cc1 [Example 2, 6-(4-(3-Amino-6-(2-hydroxyphenyl)pyridazin-4-yl)piperazin-1-yl)-N—((S)-1-((2S,4R)-4-hydroxy-2-(((S)-1-(4-(4-methylthiazol-5-yl)phenyl)ethyl)carbamoyl)pyrrolidin-1-yl)-3,3-dimethyl-1-oxobutan-2-yl)picolinamide]	–
22	–	Cc1ncsc1-c1ccc([C@H](C)NC(=O)[C@@H]2C[C@@H](O)CN2C(=O)[C@@H](NC(=O)c2cccc(N3CCN(c4cc(-c5ccccc5O)nnc4N)CC3)c2)C(C)(C)C)cc1 [Example 4, (2S,4R)-1-((S)-2-(3-(4-(3-Amino-6-(2-hydroxyphenyl)pyridazin-4-yl)piperazin-1-yl)benzamido)-3,3-dimethylbutanoyl)-4-hydroxy-N—((S)-1-(4-(4-methylthiazol-5-yl)phenyl)ethyl)pyrrolidine-2-carboxamide]	–
43	–	Cc1ncsc1-c1ccc([C@H](C)NC(=O)[C@@H]2C[C@@H](O)CN2C(=O)[C@@H](NC(=O)c2ccnc(N3CCN(c4cc(-c5ccccc5O)nnc4N)CC3)c2)C(C)(C)C)cc1 [Example 3, 2-(4-(3-Amino-6-(2-hydroxyphenyl)pyridazin-4-yl)piperazin-1-yl)-N—((S)-1-((2S,4R)-4-hydroxy-2-(((S)-1-(4-(4-methylthiazol-5-yl)phenyl)ethyl)carbamoyl)pyrrolidin-1-yl)-3,3-dimethyl-1-oxobutan-2-yl)isonicotinamide]	–
110	–	Cc1ncsc1-c1ccc(CNC(=O)[C@@H]2C[C@@H](O)CN2C(=O)[C@@H](NC(=O)c2ccnc(N3CCN(c4cc(-c5ccccc5O)nnc4N)CC3)c2)C(C)(C)C)cc1 [Example 1, 2-(4-(3-Amino-6-(2-hydroxyphenyl)pyridazin-4-yl)piperazin-1-yl)-N—((S)-1-((2S,4R)-4-hydroxy-2-((4-(4-methylthiazol-5-yl)benzyl)carbamoyl)pyrrolidin-1-yl)-3,3-dimethyl-1-oxobutan-2-yl)isonicotinamide]	–
190	–	Cc1ncsc1-c1ccc([C@H](C)NC(=O)[C@@H]2C[C@@H](O)CN2C(=O)[C@@H](NC(=O)c2ccc(N3CCN(c4cc(-c5ccccc5O)nnc4N)CC3)s2)C(C)(C)C)cc1 [Example 6, (2S,4R)-1-((S)-2-(5-(4-(3-Amino-6-(2-hydroxyphenyl)pyridazin-4-yl)piperazin-1-yl)thiophene-2-carboxamido)-3,3-dimethylbutanoyl)-4-hydroxy-N—((S)-1-(4-(4-methylthiazol-5-yl)phenyl)ethyl)pyrrolidine-2-carboxamide]	–
150	–	Cc1ncsc1-c1ccc([C@H](C)NC(=O)[C@@H]2C[C@@H](O)CN2C(=O)[C@@H](NC(=O)c2csc(N3CCN(c4cc(-c5ccccc5O)nnc4N)CC3)n2)C(C)(C)C)cc1 [Example 5, 2-(4-(3-Amino-6-(2-hydroxyphenyl)pyridazin-4-yl)piperazin-1-yl)-N—((S)-1-((2S,4R)-4-hydroxy-2-(((S)-1-(4-(4-methylthiazol-5-yl)phenyl)ethyl)carbamoyl)pyrrolidin-1-yl)-3,3-dimethyl-1-oxobutan-2-yl)thiazole-4-carboxamide]	–
